Each block holds one molecule with its values, some of them ahead of it.
Legend:
HCC827 = assay: Antiproliferative activity against human HCC827 cells harboring EGFR Del19 mutant incubated for 72 hrs by SRB assay; format: functional, cell-based; settings: HCC827, 72 h
[1] = Inhibition of EGFR del19/T790M/C797S triple mutant in mouse BAF3 cells assessed as reduction in cell proliferation incubated for 3 days by celltiter-glo assay; format: cell-based; settings: BaF3, 72 h
[2] = Inhibition of wild type EGFR in mouse BAF3 cells assessed as reduction in cell proliferation incubated for 3 days by celltiter-glo assay; format: cell-based; settings: BaF3, 72 h
NCI-H1975 [3] = assay: Antiproliferative activity against human NCI-H1975 cells harboring EGFR L858R/T790M mutant incubated for 72 hrs by SRB assay; format: functional, cell-based; settings: NCI-H1975, 72 h
PC-9 [4] = assay: Antiproliferative activity against human PC-9 cells harboring EGFR Del19/T790M/C797S mutant incubated for 72 hrs by SRB assay; format: functional, cell-based; settings: PC-9, 72 h
NCI-H1975 [5] = assay: Antiproliferative activity against human NCI-H1975 cells harboring EGFR L858R/T790M/C797S mutant incubated for 72 hrs by SRB assay; format: functional, cell-based; settings: NCI-H1975, 72 h
A-431 = assay: Antiproliferative activity against human A-431 cells harboring wild type EGFR incubated for 72 hrs by SRB assay; format: functional, cell-based; settings: A-431, 72 h
[6] = Inhibition of ERK phosphorylation in human PC-9 cells harboring Del19/T790M/C797S mutant incubated for 6 hrs by Western blot analysis; format: cell-based; settings: PC-9, 6 h
[7] = Inhibition of AKT phosphorylation in human PC-9 cells harboring Del19/T790M/C797S mutant incubated for 6 hrs by Western blot analysis; format: cell-based; settings: PC-9, 6 h
[8] = Inhibition of ERK phosphorylation in human A-431 cells harboring wild type EGFR incubated for 6 hrs by Western blot analysis; format: cell-based; settings: A-431, 6 h
[9] = Inhibition of AKT phosphorylation in human A-431 cells harboring wild type EGFR incubated for 6 hrs by Western blot analysis; format: cell-based; settings: A-431, 6 h
[10] = molecular target: T1, Epidermal growth factor receptor (Homo sapiens, UniProt P00533, C797S/EX19DEL/T790M); assay: Inhibition of EGFR del19/T790M/C797S triple mutant (unknown origin) in presence of ATP by FRET assay
T1 sequence (P00533 whole entry, looked up, stated change not applied): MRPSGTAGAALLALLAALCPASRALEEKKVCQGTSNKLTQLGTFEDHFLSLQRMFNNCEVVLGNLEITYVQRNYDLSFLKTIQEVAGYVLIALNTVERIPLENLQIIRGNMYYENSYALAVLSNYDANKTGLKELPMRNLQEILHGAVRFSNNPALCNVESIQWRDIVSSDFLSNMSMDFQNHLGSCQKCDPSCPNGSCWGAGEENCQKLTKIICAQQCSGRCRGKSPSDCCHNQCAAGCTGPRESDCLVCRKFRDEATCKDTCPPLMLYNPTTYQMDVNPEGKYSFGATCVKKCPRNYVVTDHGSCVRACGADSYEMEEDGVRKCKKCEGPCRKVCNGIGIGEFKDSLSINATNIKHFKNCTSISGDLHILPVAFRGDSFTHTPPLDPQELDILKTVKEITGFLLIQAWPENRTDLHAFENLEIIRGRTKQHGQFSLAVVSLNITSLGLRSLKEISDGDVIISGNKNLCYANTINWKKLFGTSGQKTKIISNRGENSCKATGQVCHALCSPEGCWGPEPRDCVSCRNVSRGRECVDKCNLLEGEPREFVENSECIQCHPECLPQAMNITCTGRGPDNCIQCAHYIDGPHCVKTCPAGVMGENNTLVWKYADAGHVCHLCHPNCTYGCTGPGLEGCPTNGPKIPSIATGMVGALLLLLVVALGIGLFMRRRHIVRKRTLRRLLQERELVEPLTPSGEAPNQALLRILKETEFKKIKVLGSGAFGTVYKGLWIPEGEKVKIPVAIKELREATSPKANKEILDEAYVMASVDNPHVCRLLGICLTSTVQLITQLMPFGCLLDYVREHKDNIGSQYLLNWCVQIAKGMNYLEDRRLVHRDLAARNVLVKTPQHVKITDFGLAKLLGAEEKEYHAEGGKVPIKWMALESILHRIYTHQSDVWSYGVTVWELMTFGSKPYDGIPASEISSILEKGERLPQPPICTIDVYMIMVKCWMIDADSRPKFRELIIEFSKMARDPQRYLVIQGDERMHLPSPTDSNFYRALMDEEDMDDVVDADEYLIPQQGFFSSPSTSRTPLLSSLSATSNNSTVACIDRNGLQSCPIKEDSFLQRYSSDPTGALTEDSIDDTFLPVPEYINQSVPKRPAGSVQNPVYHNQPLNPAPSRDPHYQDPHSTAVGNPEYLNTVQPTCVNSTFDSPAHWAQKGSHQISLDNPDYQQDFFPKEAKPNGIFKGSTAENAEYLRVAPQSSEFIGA

[11] = molecular target: Epidermal growth factor receptor (Homo sapiens, UniProt P00533, C797S/L858R/T790M); assay: Inhibition of EGFR L858R/T790M/C797S triple mutant (unknown origin) in presence of ATP by FRET assay
Chain of Epidermal growth factor receptor (Homo sapiens, UniProt P00533, C797S/L858R/T790M) (P00533 25-1210 T790M/C797S/L858R limits assumed): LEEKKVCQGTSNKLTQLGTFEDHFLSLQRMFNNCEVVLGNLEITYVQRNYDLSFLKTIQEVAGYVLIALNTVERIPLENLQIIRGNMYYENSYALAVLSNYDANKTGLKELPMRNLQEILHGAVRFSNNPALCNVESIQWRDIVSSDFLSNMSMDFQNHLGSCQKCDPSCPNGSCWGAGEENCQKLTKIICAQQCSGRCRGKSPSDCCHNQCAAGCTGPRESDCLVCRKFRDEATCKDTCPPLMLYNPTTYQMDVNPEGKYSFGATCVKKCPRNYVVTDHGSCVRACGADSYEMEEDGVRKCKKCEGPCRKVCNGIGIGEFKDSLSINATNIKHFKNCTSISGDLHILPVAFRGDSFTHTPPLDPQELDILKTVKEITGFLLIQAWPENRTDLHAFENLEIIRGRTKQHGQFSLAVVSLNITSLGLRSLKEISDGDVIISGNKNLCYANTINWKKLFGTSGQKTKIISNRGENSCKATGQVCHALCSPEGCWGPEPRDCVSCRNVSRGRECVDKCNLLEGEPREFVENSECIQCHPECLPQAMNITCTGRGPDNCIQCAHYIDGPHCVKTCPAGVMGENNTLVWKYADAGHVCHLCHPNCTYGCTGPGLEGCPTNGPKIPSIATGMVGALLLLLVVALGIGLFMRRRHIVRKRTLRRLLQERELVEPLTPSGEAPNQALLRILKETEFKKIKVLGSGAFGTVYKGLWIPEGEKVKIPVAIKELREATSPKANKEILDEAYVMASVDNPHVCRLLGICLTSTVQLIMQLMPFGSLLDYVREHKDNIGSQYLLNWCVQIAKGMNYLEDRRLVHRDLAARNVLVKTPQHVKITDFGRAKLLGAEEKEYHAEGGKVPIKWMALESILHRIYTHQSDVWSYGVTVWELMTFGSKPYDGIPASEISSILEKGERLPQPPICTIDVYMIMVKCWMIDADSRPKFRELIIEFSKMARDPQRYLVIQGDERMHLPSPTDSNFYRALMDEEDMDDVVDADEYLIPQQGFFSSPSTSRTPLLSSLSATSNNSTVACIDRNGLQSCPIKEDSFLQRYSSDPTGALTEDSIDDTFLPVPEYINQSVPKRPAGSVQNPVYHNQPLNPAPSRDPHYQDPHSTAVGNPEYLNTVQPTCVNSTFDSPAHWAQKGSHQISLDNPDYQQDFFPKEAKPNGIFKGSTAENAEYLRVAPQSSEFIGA

[12] = molecular target: T2, Epidermal growth factor receptor (Homo sapiens, UniProt P00533); assay: Inhibition of wild type EGFR (unknown origin) in presence of ATP by FRET assay
T2 sequence (P00533 whole entry): as the sequence (P00533 whole entry, looked up, stated change not applied) above

PC-9 [13] = assay: Potency index, ratio of Brigatinib IC50 to test compound IC50 for antiproliferative activity against human PC-9 cells harboring EGFR Del19/T790M/C797S mutant incubated for 72 hrs by SRB assay; format: functional
NCI-H1975 [14] = assay: Potency index, ratio of Brigatinib IC50 to test compound IC50 for antiproliferative activity against human NCI-H1975 cells harboring EGFR L858R/T790M/C797S mutant incubated for 72 hrs by SRB assay; format: functional
[15] = Microsomal stability in human liver microsome assessed as parent compound remaining preincubated with compound for 60 mins and measured after 1 hr by HPLC analysis; format: ADME; settings: liver microsomes, time 2 hrs, read-out: Stability
[16] = Microsomal stability in mouse liver microsome assessed as parent compound remaining preincubated with compound for 60 mins and measured after 1 hr by HPLC analysis; format: ADME; settings: liver microsomes, time 2 hrs, read-out: Stability
[17] = Plasma protein binding in human assessed as unbound fraction measured after 6 hrs by rapid equilibrium dialysis based LC-MS/MS analysis; format: ADME, cell-free
[18] = Plasma protein binding in mouse assessed as unbound fraction measured after 6 hrs by rapid equilibrium dialysis based LC-MS/MS analysis; format: ADME, cell-free
[19] = Stability in human plasma assessed as parent compound remaining measured after 2 hrs by LC-MS/MS analysis; format: ADME, cell-free; settings: read-out: Stability
[20] = Stability in mouse plasma assessed as parent compound remaining measured after 2 hrs by LC-MS/MS analysis; format: ADME, cell-free; settings: read-out: Stability
[21] = molecular target: T1, Epidermal growth factor receptor; assay: Inhibition of EGFR phosphorylation in human PC-9 cells harboring Del19/T790M/C797S mutant incubated for 6 hrs by Western blot analysis; format: cell-based
[22] = molecular target: T2, Epidermal growth factor receptor; assay: Inhibition of EGFR phosphorylation in human A-431 cells harboring wild type EGFR incubated for 6 hrs by Western blot analysis; format: cell-based
[23] = AUC (0 to 24 hrs) in mouse at 5 mg/kg, iv measured upto 24 hrs by LC-MS/MS analysis; format: ADME, organism-based; settings: in vivo
[24] = AUC (0 to 24 hrs) in mouse at 75 mg/kg, po measured upto 24 hrs by LC-MS/MS analysis; format: ADME, organism-based; settings: in vivo
[25] = Cmax in mouse at 5 mg/kg, iv measured upto 24 hrs by LC-MS/MS analysis; format: ADME, organism-based; settings: in vivo
[26] = Cmax in mouse at 75 mg/kg, po measured upto 24 hrs by LC-MS/MS analysis; format: ADME, organism-based; settings: in vivo
[27] = Tmax in mouse at 75 mg/kg, po measured upto 24 hrs by LC-MS/MS analysis; format: ADME, organism-based; settings: in vivo
[28] = Half life in mouse at 5 mg/kg, iv measured upto 24 hrs by LC-MS/MS analysis; format: ADME, organism-based; settings: in vivo
[29] = Half life in mouse at 75 mg/kg, po measured upto 24 hrs by LC-MS/MS analysis; format: ADME, organism-based; settings: in vivo
[30] = Clearance in mouse at 5 mg/kg, iv measured upto 24 hrs by LC-MS/MS analysis; format: ADME, organism-based; settings: in vivo
[31] = Volume of distribution at steady state in mouse at 5 mg/kg, iv measured upto 24 hrs by LC-MS/MS analysis; format: ADME, organism-based; settings: in vivo, read-out: Vdss
[32] = Oral bioavailability in mouse at 75 mg/kg measured upto 24 hrs by LC-MS/MS analysis; format: ADME, organism-based; settings: in vivo
[33] = Toxicity in NOD-SCID mouse xenografted with human PC-9 cells harboring Del19/T790M/C797S triple mutant assessed as body weight loss at 50 mg/kg, sc bid administered for 14 days; format: organism-based; settings: in vivo, 336 h, time 14 day
[34] = Toxicity in NOD-SCID mouse xenografted with human PC-9 cells harboring Del19/T790M/C797S triple mutant assessed as clinical signs at 50 mg/kg, sc bid administered for 14 days; format: organism-based; settings: in vivo, 336 h, time 14 day

- IC50 (HCC827): 282 nM
- IC50 (NCI-H1975 [3]): 380 nM
- IC50 (PC-9 [4]): 838 nM
- IC50 (NCI-H1975 [5]): 1130 nM
- IC50 (A-431): 540 nM
- IC50 [6]: 3730 nM
- IC50 [7]: 984 nM
- IC50 [8]: 5830 nM
- IC50 [9]: 3330 nM
Structure (SMILES): COc1cc(N2CCC(N3CCN(C)CC3)CC2)ccc1Nc1ncc(Cl)c(Nc2ccccc2P(C)(C)=O)n1 [BRIGATINIB]
- IC50 [1]: 227 nM
- IC50 [2]: 782 nM

Structure (SMILES): CC(C)N1CCN(c2ccc(Nc3nc(Nc4ccccc4N(C)S(C)(=O)=O)c4cc[nH]c4n3)cc2F)CC1
- IC50 [1]: 157 nM
- IC50 [2]: 670 nM

Structure (SMILES): CN(c1ccccc1Nc1nc(Nc2ccc(N3CCCCC3)c(F)c2)nc2[nH]ccc12)S(C)(=O)=O
- IC50 [1]: 741 nM
- IC50 [2]: 739 nM

Structure (SMILES): CN1CCN(c2ccc(Nc3nc(Nc4ccccc4N(C)S(C)(=O)=O)c4cc[nH]c4n3)cc2Cl)CC1
- IC50 [1]: 53.8 nM
- IC50 [2]: 47.4 nM

Structure (SMILES): C=CC(=O)Nc1cc(Nc2nccc(-c3cn(C)c4ccccc34)n2)c(OC)cc1N(C)CCN(C)C [OSIMERTINIB]
- IC50 [1]: 1240 nM
- IC50 [2]: 13.5 nM

- IC50 (HCC827): 230 nM
- IC50 (NCI-H1975 [3]): 185 nM
- IC50 (PC-9 [4]): 208 nM
- IC50 (NCI-H1975 [5]): 289 nM
- IC50 (A-431): 263 nM
- IC50 [10]: 4 nM
- IC50 [11]: 20.2 nM
- IC50 [12]: 1530 nM
Structure (SMILES): CN1CCN(c2ccc(Nc3nc(Nc4ccccc4N(C)S(C)(=O)=O)c4cc[nH]c4n3)cc2F)CC1
- IC50 [1]: 22.5 nM
- IC50 [2]: 267 nM

Structure (SMILES): CN1CCN(c2ccc(Nc3nc(Nc4ccccc4NS(C)(=O)=O)c4cc[nH]c4n3)cc2F)CC1
- IC50 [1]: 125 nM
- IC50 [2]: 2640 nM

Structure (SMILES): CN1CCN(c2ccc(Nc3nc(Nc4ccccc4N(C4CC4)S(C)(=O)=O)c4cc[nH]c4n3)cc2F)CC1
- IC50 [1]: 55.9 nM
- IC50 [2]: 273 nM

- IC50 (HCC827): 84.2 nM
- IC50 (NCI-H1975 [3]): 98.8 nM
- IC50 (PC-9 [4]): 151 nM
- IC50 (NCI-H1975 [5]): 130 nM
- IC50 (A-431): 484 nM
- IC50 [10]: 4.2 nM
- IC50 [11]: 4.7 nM
- IC50 [12]: 10300 nM
- remaining at 1 h [15]: 57.3%
- remaining at 1 h [16]: 24%
- fraction unbound at 6 h [17]: 0.937
- fraction unbound at 6 h [18]: 0.946
- remaining at 2 h [19]: 99.1%
- remaining at 2 h [20]: 97.4%
- IC50 [21]: 7.4 nM
- IC50 [6]: 26 nM
- IC50 [7]: 7.1 nM
- IC50 [22]: 1180 nM
- IC50 [8]: 1670 nM
- IC50 [9]: 1820 nM
- AUC(0-t) at 24 h [23]: 1560 ng·h/mL
- AUC(0-t) at 24 h [24]: 35800 ng·h/mL
- Cmax [25]: 1560 ng/mL
- Cmax [26]: 5480 ng/mL
- Tmax [27]: 2 h
- half-life [28]: 1.7 h
- half-life [29]: 3.5 h
- clearance [30]: 53.3 mL/min/kg
- Vd [31]: 10.8 L/kg
- bioavailability [32]: > 100%
Structure (SMILES): CCN1CCN(C2CCN(c3ccc(Nc4nc(Nc5ccccc5N(C)S(C)(=O)=O)c5cc[nH]c5n4)cc3F)CC2)CC1
- IC50 [1]: 15.5 nM
- IC50 [2]: 713 nM
- Ratio IC50 (PC-9 [13]): 5.4
- Ratio IC50 (NCI-H1975 [14]): 5.4
- Activity [33]: Non-Toxic
- Activity [34]: Non-Toxic

Structure (SMILES): CN(c1ccccc1Nc1nc(Nc2ccc(N3CCN(C4CC4)CC3)c(F)c2)nc2[nH]ccc12)S(C)(=O)=O
- IC50 [1]: 383 nM
- IC50 [2]: 790 nM

Structure (SMILES): CCN(c1ccccc1Nc1nc(Nc2ccc(N3CCN(C)CC3)c(F)c2)nc2[nH]ccc12)S(C)(=O)=O
- IC50 [1]: 36.6 nM
- IC50 [2]: 203 nM

Structure (SMILES): COc1cc(N2CCN(C)CC2)ccc1Nc1nc(Nc2ccccc2N(C)S(C)(=O)=O)c2cc[nH]c2n1
- IC50 [1]: 329 nM
- IC50 [2]: 3170 nM

Structure (SMILES): CN(c1ccccc1Nc1nc(Nc2ccc(N3CCN(C(=O)OC(C)(C)C)CC3)c(F)c2)nc2[nH]ccc12)S(C)(=O)=O
- IC50 [1]: 426 nM
- IC50 [2]: 2400 nM

- IC50 (HCC827): 370 nM
- IC50 (NCI-H1975 [3]): 211 nM
- IC50 (PC-9 [4]): 262 nM
- IC50 (NCI-H1975 [5]): 196 nM
- IC50 (A-431): 317 nM
- IC50 [10]: 4 nM
- IC50 [11]: 4.9 nM
- IC50 [12]: 4580 nM
Structure (SMILES): CN1CCN(C2CCN(c3ccc(Nc4nc(Nc5ccccc5N(C)S(C)(=O)=O)c5cc[nH]c5n4)cc3F)CC2)CC1
- IC50 [1]: 11.4 nM
- IC50 [2]: 254 nM

— ChEMBL document CHEMBL5634119, “Design and synthesis of 4th generation EGFR inhibitors against human triple (Del19/T790M/C797S) mutation” (Eur J Med Chem, 2023)
